Experimental data reported in patent US7019014B2, “Process for producing anticancer agent LL-D45042” (Wyeth Holdings Corporation, priority 2003, dated 2006).
≈ marks a conversion by molar mass, not a printed value.

How the values were obtained:
[1] = test system: breast cancer line MDA435; assay: In vitro anticancer test: growth inhibition in MDA435 tumour cells; format: cell-based; details: no PTEN mutation, multi-dose testing
Description: (§1) The in vitro anticancer activity of LL-D45042 is determined by measuring the concentration of compound required to inhibit the growth of 50% of cells in two tumour cell lines. […] The elevated sensitivity is due to its genetic mutation in the PTEN tumor suppressor gene leading to constitutive activation of mTOR signaling pathway. […] LL-D45042 is also evaluated in a binding assay of FKBP12, a cellular receptor of rapamycin, to determine its binding affinity. The results are given in Table 2, with IC50's reported in units of ng/mL.
(§2) These determinations are made by multi-dose testing of LL-D45042 and direct comparisons to the reference samples.

[2] = test system: brain cancer line U87MG; assay: In vitro anticancer test: growth inhibition in U87MG tumour cells; format: cell-based; details: Homo sapiens, U-87 MG, PTEN mutant, multi-dose testing
Description: as §1, §2

[3] = target: FKBP12 (Homo sapiens, UniProt P62942); assay: FKBP12 binding assay; details: FKBP12, a cellular receptor of rapamycin; read-out: Protein Binding, FKBP (IC50) (converted)
Chain of FKBP12 (P62942 whole entry, species assumed): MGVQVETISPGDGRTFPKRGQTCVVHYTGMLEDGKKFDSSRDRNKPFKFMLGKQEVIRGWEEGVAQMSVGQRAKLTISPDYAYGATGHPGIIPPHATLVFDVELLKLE
Description: as §1, §2

[4] = test system: breast cancer line MDA435; details: previously established; no PTEN mutation; cited from earlier work
[5] = test system: brain cancer line U87MG; details: previously established; PTEN mutation, constitutive mTOR activation; cited from earlier work

## CO[C@@H]1C[C@H](C[C@@H](C)[C@@H]2CC(=O)[C@H](C)/C=C(\C)[C@@H](O)[C@@H](O)C(=O)[C@H](C)C[C@H](C)/C=C/C=C/C=C(\C)[C@@H](O)C[C@@H]3CC[C@@H](C)[C@](O)(CC(=O)N4CCCC[C@H]4C(=O)O2)O3)CC[C@H]1O [LL-D45042]
[1]
  IC50: > 1 µg/mL
[2]
  IC50: 0.035 µg/mL (≈ 0.0401 µM)
[3]
  IC50: 401 nM

## CO[C@H]1C[C@@H]2CC[C@@H](C)[C@@](O)(O2)C(=O)C(=O)N2CCCC[C@H]2C(=O)O[C@H]([C@H](C)C[C@@H]2CC[C@@H](O)[C@H](OC)C2)CC(=O)[C@H](C)/C=C(\C)[C@@H](O)[C@@H](OC)C(=O)[C@H](C)C[C@H](C)/C=C/C=C/C=C/1C [rapamycin, Rapamycin]
[4]
  Sensitivity of MDA435 to growth inhibition: rapamycin-resistant phenotype
[5]
  Sensitivity of U87MG to growth inhibition: highly sensitive
